System: P. falciparum 3D7 growth, pLDH absorbance
Assay: blood-stage malaria parasite growth potency – strain 3D7, dose response (AID 2305)

SMILES	IC50 [nM]
CC(=O)Oc1c(C2CCN(CCCCNC(=O)c3ccc(NC(=O)c4ccc(Cl)cc4)cc3)CC2)ccc2c1CCCC2	760
Cc1cccc(NC(=O)Nc2ccc(I)c(OCCN(C)C)c2)c1C	730
COc1c(CN2CCOCC2)cccc1-c1cc2c(-c3ccc(C(=O)O)c(C(C)C)c3)ccnc2[nH]1	740
O=C(CCc1cnc[nH]1)Nc1ccc(-c2cccc(-c3nc4ccccc4[nH]3)c2)cc1	350
C=CCN(C(=O)c1ccc(Cl)c([N+](=O)[O-])c1)c1nc(-c2ccccc2)cs1	400
CC1(C)N=C(N)N=C(N)N1c1ccccc1	330
COc1cc(NC(=O)c2cccc([N+](=O)[O-])c2)cc(S(=O)(=O)c2ccc(Cl)cc2)c1	1130
C=CCc1ccccc1OCC(O)CN(C1CCCCC1)C1CCCCC1 (centres undefined)	810
O=C(C=Cc1ccc(Cl)c(Cl)c1)NCCCCCN1CCCC(CCCNC(=O)c2cccs2)C1 (centres undefined)	1300
CCNc1cc(C(=O)N[C@@H](Cc2ccccc2)[C@H](O)CNC2CCCC2)cc(N2CCCC2=O)c1	80
CN1CCN(CCCN(Cc2csc(-c3ccc(CNCc4ccccc4)cc3)n2)S(=O)(=O)c2ccc(F)cc2)CC1	860
O=C(NC1CCN(c2ccnc(Nc3ccc(F)cc3)n2)C1)c1cc2ccccc2s1 (centres undefined)	720
CC(C)C[C@@H](C(=O)N[C@H](C(=O)Nc1nccs1)C(C)(C)C)[C@H](CCC(F)(F)F)N(O)C=O	600
Cc1nc(N)nc(N)c1OCCCCOc1ccccc1	50
CCOC(=O)c1c[nH]c2c(sc3cc(OC)ccc32)c1=O	390
COc1cc2c(cc1S(=O)(=O)c1ccc(NC(=O)c3ccc4ccccc4c3)cc1)CCN(C)CC2	800
CC[C@H](N=C(Nc1ccc(-c2ccccc2)cc1)Nc1ccc(C#N)cc1O)c1ccccc1	760
CN(C)CCC(=O)c1ccccc1	330
CC(C)Cc1nc(N)nc(N)c1-c1ccc(Cl)cc1	140
COc1ccccc1NC(=O)Nc1ccc(-c2ccc(-c3nc4ccc(C(F)(F)F)cc4[nH]3)cc2)cc1	540
CC1CCCN(C(=O)c2cc(-c3ccccn3)nc3c(Cl)cccc23)C1 (centres undefined)	1080
O=c1[nH]ccc2nc(N[C@@H]3CCNC3)nc(Nc3cccc(S(=O)(=O)N4CCOCC4)c3)c12	1230
CO/C(=C\C=C\c1cc2cc(Cl)c(Cl)cc2[nH]1)C(=O)NCCCN1CCN(c2cccc(O)c2)CC1	580
Cc1cc(N2CCCCC2)nc2ccc(NC(=O)c3cc(=O)c4ccccc4o3)cc12	720
CN(C)c1nc(NN=Cc2cc(Cl)ccc2O)nc(Nc2ccc(F)cc2)n1	840

SMILES	IC50 [nM]
Cc1ncccc1C(=O)Nc1cccc(-c2cccc(-c3nc4ccc(C(F)(F)F)cc4[nH]3)c2)c1	600
COc1c(C2CCN(CCN3CCC(NC(=O)c4ccc(-c5ccc(C(F)(F)F)cc5)cc4)CC3)CC2)ccc2c1CCCC2	1360
O=C(Nc1ccc(C(F)(F)F)cc1)NC1CCN(c2ccnc3ccccc23)CC1	180
CN(C)C(=O)CCCn1c(CNCCCNc2cc(=O)c3ccccc3[nH]2)cc2c(Cl)cc(Cl)cc21	1190
O=C(/C=C/c1ccsc1)NC1CCC(CN2CCC(c3c[nH]c4ccccc34)CC2)CC1 (centres undefined)	1120
Cc1cc(N[C@@H](Cc2ccccc2)C(=O)NCc2cccs2)nc(NCCc2cccnc2)n1	1010
Cc1cc(N[C@@H](Cc2ccccc2)C(=O)NC2CCCC2)nc(Nc2ccccc2)n1	830
CN1CCN(c2ccnc3ccc(NC(=O)Nc4cccc5ccccc45)cc23)CC1	490
OC1(CNCc2ccccc2)CCN(CCc2c[nH]c3ccc(F)cc23)CC1	710
CN1CCN(Cc2cccc(-c3ccc4c(Nc5ccc(Oc6ccccc6)cc5)ccnc4c3)c2)CC1	230
Cc1[nH]c(C)c(-c2ccc(CCc3ccc(F)cc3F)cc2)c(=O)c1Cl	20
CCN(CC)CCN(Cc1ccc(-c2ccc(C(F)(F)F)cc2)cc1)C(=O)Cn1c(CCc2c(F)cc(F)cc2F)nc(=O)c2ccccc21	1040
O=C1NC(c2ccc(N3CCCCCC3)cc2)Nc2ccccc21 (centres undefined)	570
CN1C(=O)[C@H](NC(=O)[C@@H](Cc2ccccc2)NC(=S)Nc2ccccc2)N=C(c2ccccc2)c2ccccc21	860
CCOC(=O)CN(c1ccc(Br)cc1OCCOc1cc(Br)ccc1N(CC(=O)OCC)C(C)C(=O)OCC)C(C)C(=O)OCC (centres undefined)	810
O=C(CC1CCCC1)N(CC1CCN(Cc2ccc(C(F)(F)F)cc2)CC1)c1ccc(N2CCOCC2)c(F)c1	430
Cc1cccc(CNc2nc(C)cc(NCCC(=O)NCCOc3ccccc3)n2)c1	870
Cc1ccc(O)cc1Nc1ccnc2cc(-c3ccncc3)ccc12	720
CS(=O)(=O)c1ccc(Nc2ncc(-c3ccc(S(C)(=O)=O)cc3)c(OCC(F)(F)F)n2)cc1	400
O=C(NC1CCC(CN2CCC(c3c[nH]c4ccccc34)CC2)CC1)c1ccc(-c2cc(C(F)(F)F)ccc2Cl)o1 (centres undefined)	710
CCCCc1ccc(-c2ccc(-c3c(C)[nH]c(C)c(Br)c3=O)cn2)cc1	60
CCOc1cc(C)ccc1C1CCN(CCCCNC(=O)c2ccc(-c3ccc(C(F)(F)F)cn3)cc2)CC1	790
Nc1nc(N)c2c3c(ccc2n1)CCC3	930
CCC(C)NCc1c(O)ccc2c(CNC(C)CC)c(O)ccc12 (centres undefined)	590
Cc1cc(NCc2ccc(F)cc2)nc2cc(O)ccc12	760

SMILES	IC50 [nM]
Cc1c(CC(=O)N(C)C2CCN(CCCCCNC(=O)/C=C/c3ccc(Cl)c(Cl)c3)CC2)sc2ccc(Cl)cc12	1160
COc1ccc(CNCc2ccsc2)cc1-c1ccc(OC)c(S(=O)(=O)NCCN2CCCC2)c1	920
Clc1ccc2c(N3CCCNCC3)ccnc2c1	480
COc1ccc2nc(C)cc(N/N=C/C=C/c3ccccc3)c2c1	700
O=C(/C=C/c1ccc(Cl)c(Cl)c1)N1CCC(CCN2CCC(c3nc4ccc(O)cc4[nH]3)CC2)CC1	340
CC(C)(C)c1cc(NC(=O)c2ccc(Cl)c([N+](=O)[O-])c2)cc(C(C)(C)C)c1	1030
CN(CC(=O)Nc1ccc(F)cc1)C(=O)c1ccc(-c2ccc(F)cc2)o1	930
CCN(C(=O)CSc1cc(C)c2cc(C)cc(C)c2n1)C1CCS(=O)(=O)C1 (centres undefined)	670
O=C(Cc1cnc[nH]1)Nc1cccc(-c2ccc(-c3nc4ccc(F)cc4[nH]3)cc2)c1	810
Cc1cc(=O)[nH]c(NC#N)n1	170
Cc1cc(=O)c(-c2ccc(Oc3cccc(OC(F)(F)F)c3)cc2)c(C)[nH]1	200
Cc1ccc(NC(=O)c2ccc(C(=O)NC3CCN(CC4CCCCC4)CC3)cc2)cc1	900
CCN1CCN(C(=O)NC(C(=O)N2CCCC(COc3ccc(Cc4ccccc4)cc3)C2)c2cccs2)C(=O)C1=O (centres undefined)	480
CC(C)CN1CCCN(Cc2cccc(NC(=O)c3ccc(-c4ccccc4)cc3)c2)CC1	880
O=c1cc(NCCCNCc2cc(Br)cs2)[nH]c2ccccc12	1060
C=CCN1Cc2c(O)cccc2C(c2ccc(O)c(O)c2)C1 (centres undefined)	670
OC(CNC1CCCCCC1)c1ccc(Cl)c(Cl)c1 (centres undefined)	690
CC(CN(C)C)C(=O)Nc1ccc(-c2cccc(-c3nc4ccc(C(F)(F)F)cc4[nH]3)c2)cc1 (centres undefined)	210
O=c1cc(NCCCN(Cc2cc3c(Cl)cc(Cl)cc3[nH]2)Cc2cc3c(Cl)cc(Cl)cc3[nH]2)[nH]c2ccccc12	120
O=C(NCCNc1nc(NCCNC(=O)Nc2ccccc2)c2ccc(=O)n(-c3c(F)cccc3F)c2n1)Nc1ccccc1	170
CC(C)(C)c1ccc(N2C(N)=NC(N)=NC2(C)C)cc1	30
OCCN1CCN(Cc2ccc(-c3ccc(-c4nc5ccc(C(F)(F)F)cc5[nH]4)s3)cc2)CC1	380
Cc1ccc2[nH]c(-c3ccc(C(=O)NCc4ccc(Cl)c(Cl)c4)cc3)nc2c1C	790
CCc1ccc(CN(Cc2ccc(C)cc2)Cc2ccc(NC(C)=O)cc2)cc1	960
CCN1CCC(N2CCC(n3c(C)nc4cc(C(F)(F)F)ccc43)CC2)CC1	1020

SMILES	IC50 [nM]
COc1ccc(-c2cccc(CNC3CCN(CC4Cn5c(=O)ccc6ccc(F)c4c65)CC3)c2)cc1 (centres undefined)	1090
CC[C@H]1CN2CC[C@H]1C[C@H]2[C@H](O)c1cc(-c2ccccc2F)nc2ccc(OC)cc12	80
CC(C)CCN1CCCN(Cc2cccc(C(=O)Nc3ccc(C(C)(C)C)cc3)c2)CC1	1100
CC(C)c1sc(N2CCN(C)CC2)nc1C(=O)NCCc1cccc(Cl)c1	1490
CN1CCN(CCCN(Cc2ccc(-c3cccc(CNCc4ccc5c(c4)OCO5)c3)cc2)C(=O)NC2CCCCC2)CC1	990
CC(=O)Nc1ccc(C(=O)Nc2cccc(-c3cccc(-c4nc5c(C)cccc5[nH]4)c3)c2)cn1	60
COc1cc(NC(=O)N2CCOC(CCN3CCC(c4ccccc4)CC3)(c3ccc(Cl)c(Cl)c3)C2)cc(OC)c1 (centres undefined)	290
COc1cc(C(=O)NCCCN2CCN(c3cccc(Cl)c3)CC2)ccc1-c1cc2cc(Cl)c(Cl)cc2[nH]1	470
O=C(/C=C/c1ccc(Cl)c(Cl)c1)NC1CCC(N2CCC(c3c[nH]c4ccccc34)CC2)CC1 (centres undefined)	880
COc1cc2nc(NCc3ccccc3)nc(NCc3ccccc3)c2cc1OC	150
CN(C)CCOc1ccc(-c2cc(-c3ccc(Cl)c(O)c3)c(-c3ccncc3)o2)cc1	1450
COc1ccc(Cl)cc1C(=O)Nc1ccc(-c2nc3ccccc3[nH]2)cc1	770
NCC(NC(=O)c1ccc(-c2c[nH]c3ncccc23)s1)c1ccccc1 (centres undefined)	550
COc1ccc(OCC(=O)Nc2cc(-c3nc4ccccc4[nH]3)ccc2Cl)cc1	900
CN(C)C1CCN(Cc2ccc(N3CCN(Cc4cccc5[nH]ccc45)CC3)nc2)CC1	1530
CCc1c(CCNCCCCCCNCCc2ccc(Br)cc2)ccc(O)c1O	900
NC(N)=NCCCN(Cc1ccccc1)c1ccccc1	580
CCn1c(-c2nc(-c3ccc4c(c3)OCO4)cnc2N)nc2cnccc21	430
Cc1ccc(F)c(NC(=O)c2c(-c3c(F)cccc3Cl)noc2C)c1	930
Cc1ccccc1OCC(O)CN1CCC(C2CCN(CC(O)COc3ccccc3C)CC2)CC1 (centres undefined)	310
Cc1cccc2[nH]c(-c3cccc(-c4ccc(NC(=O)NC(C)C)cc4)c3)nc12	750
COc1cc2nc(N3CCC(CNC(=O)c4cccc5cc[nH]c45)CC3)nc(N)c2cc1OC	1580
CN(C)Cc1cccc(-c2cnc(N)c(-c3nc4ccc(S(C)(=O)=O)cc4[nH]3)c2)c1	890
Cc1cccc2[nH]c(-c3ccc(-c4ccc(CNCc5ccc(CN)cc5)cc4)cc3)nc12	720

— PubChem BioAssay AID2305 (GlaxoSmithKline (GSK), 2010)
